Where “and” joins values, the source holds several entries; their conditions need not be identical. Identical values can stand only once. Like-named read-outs stand apart in the source and are kept apart here.
Columns and labels:
[1] = Metabolic stability in rat liver microsomes (RLMs); details: for microsomal CLint / half-life: rat
[2] = Peptide stability in simulated intestinal fluid (SIF); type: in vitro ADME, porcine; details: simulated gi fluid; 8 h, 37 °C, pH 6.8; read-out: Proteolytic stability: SIF (8 h) % remaining
Outline: (§1)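 Peptide from a 1 mM DMSO stock was added to fluid pre-warmed at 37 °C. SGF was pH 1.2 NaCl with porcine pepsin (0.32 g per 100 ml), and SIF was pH 6.8 potassium phosphate with porcine pancreatin (1 g per 100 ml). Supernatant peptide was quantified by LC–MS, with residual expressed as T1/T0.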

[3] = system: porcine pancreatin; assay: as above; type: in vitro ADME; details: after 8 h vs 0 h (TIC)
Outline: as §1

[4] = Passive artificial membrane permeability (PAMPA)
[5] = biological target: T1, rat α-thrombin (Rattus norvegicus, UniProt P18292); assay: Protease inhibition, Ki for rat α-thrombin (fluorogenic substrate Z-Gly-Gly-Arg-AMC); type: biochemical; details: rat alpha thrombin; for Slope normalized to DMSO (proteolytic substrate cleavage over time): replicates R1-R3
T1 construct: rat α-thrombin (Molecular Innovations) were used at final concentrations of 2 nM and 3 nM; purchased Molecular Innovations
Outline: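 Ki values come from Cheng–Prusoff correction of IC50, itself fitted by four-parameter logistic regression of activity versus a no-peptide control. Assays used 2 nM human or 3 nM rat thrombin, 50 μM Z-Gly-Gly-Arg-AMC, 30 min kinetic fluorescence at 25 °C.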

[6] = biological target: T2, porcine pepsin (Sus scrofa, UniProt P00791); assay: Peptide stability in simulated gastric fluid (SGF); type: in vitro ADME
T2 construct: 0.32 g of porcine pepsin (Sigma-Aldrich, P7125) was dissolved under gentle agitation; purchased Sigma-Aldrich P7125
T2 sequence (P00791 60-385): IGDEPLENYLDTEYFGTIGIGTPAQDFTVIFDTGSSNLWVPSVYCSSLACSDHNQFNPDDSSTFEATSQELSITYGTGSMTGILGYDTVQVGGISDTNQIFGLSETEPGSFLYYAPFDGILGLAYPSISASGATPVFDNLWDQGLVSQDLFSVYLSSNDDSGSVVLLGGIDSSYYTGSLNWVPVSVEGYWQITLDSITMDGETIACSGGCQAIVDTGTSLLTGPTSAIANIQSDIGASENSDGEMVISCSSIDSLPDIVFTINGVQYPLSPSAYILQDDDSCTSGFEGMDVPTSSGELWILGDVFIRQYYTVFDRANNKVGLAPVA
Outline: as §1

TIC value of compound, 0 min, R1 ([1]; rat liver microsomes, 0 min, replicate R1): 21675652
TIC value of compound, 0 min, R3 ([1]; rat liver microsomes, 0 min, replicate R3): 21375886
TIC value of compound, 5 min, R1 ([1]; rat liver microsomes, 5 min, replicate R1): 16129690
TIC value of compound, 5 min, R3 ([1]; rat liver microsomes, 5 min, replicate R3): 21185792
TIC value of compound, 15 min, R1 ([1]; rat liver microsomes, 15 min, replicate R1): 14173175
TIC value of compound, 15 min, R3 ([1]; rat liver microsomes, 15 min, replicate R3): 14991116
TIC value of compound, 30 min, R1 ([1]; rat liver microsomes, 30 min, replicate R1): 10634659
TIC value of compound, 30 min, R3 ([1]; rat liver microsomes, 30 min, replicate R3): 9842710
TIC value of compound, 60 min, R1 ([1]; rat liver microsomes, 60 min, replicate R1): 4587256
TIC value of compound, 60 min, R3 ([1]; rat liver microsomes, 60 min, replicate R3): 4284596
microsomal CLint ([1]; CL (ul/min/mg protein), R1, RLM CL, replicate R1, unrounded): 53.6 µL/min/mg
microsomal CLint ([1]; CL (ul/min/mg protein), R2, RLM CL, replicate R2, unrounded): 48.6 µL/min/mg
microsomal CLint ([1]; CL (ul/min/mg protein), R3, RLM CL, replicate R3, unrounded): 49.4 µL/min/mg
half-life ([1]; Half Life (min), R1, RLM metabolic stability, replicate R1): 25.9 min
half-life ([1]; Half Life (min), R2, RLM metabolic stability, replicate R2): 28.5 min
half-life ([1]; Half Life (min), R3, RLM metabolic stability, replicate R3): 28 min
half-life ([1]; microsomes, Metabolic stability: Half life T1/2 (min), RLMs, mean and SD, three measurements): 27 ± 1 min
microsomal CLint ([1]; microsomes, Metabolic stability: RLM CL (ul/min/mg), RLMs, mean and SD, three measurements): 51 ± 2 µL/min/mg
microsomal CLint ([1]; microsomes, RLM CL, Average, average of R1-R3): 50.6 µL/min/mg
microsomal CLint ([1]; microsomes, RLM CL, R1, RLM CL, replicate R1, summary block): 53.6 µL/min/mg
microsomal CLint ([1]; microsomes, RLM CL, R2, RLM CL, replicate R2, summary block): 48.6 µL/min/mg
microsomal CLint ([1]; microsomes, RLM CL, R3, RLM CL, replicate R3, summary block): 49.4 µL/min/mg
remaining at 8 h [2]: 76 ± 8%
SIF stability, Residual peptide Average ([3]; average of R1-R3): 75.90
SIF stability, Residual peptide ([3]; single replicates R1-R3): 75.23 and 67.97 and 84.49
PAMPA permeability: % permeability ([4]; 50 μM, 12–18 h, acceptor concentration relative to equilibrium): 47 ± 3%
Papp at 50 μM ([4]; PAMPA, pH 7.4): 6.17 ×10⁻⁶ cm/s
Permeability% Average ([4]; top well sample vs theoretical equilibrium sample (TIC), average of R1-R3): 46.6%
Permeability% ([4]; top well sample vs theoretical equilibrium sample (TIC), single replicates R1-R3): 44.27% and 50.38% and 45.09%
Ki ([5]; average of R1-R3, read-out: Ki Average, rat alpha thrombin inhibition): 183 nM
Slope normalized to DMSO (proteolytic substrate cleavage over time) ([5]; peptide 1.02E-03 uM): 99.2 and 100.9 and 93.8
Slope normalized to DMSO (proteolytic substrate cleavage over time) ([5]; peptide 1.04E+00 uM): 29.7 and 30.1 and 28.1
Slope normalized to DMSO (proteolytic substrate cleavage over time) ([5]; peptide 1.27E-04 uM): 101.2 and 100.0 and 97.1
Slope normalized to DMSO (proteolytic substrate cleavage over time) ([5]; peptide 1.30E-01 uM): 74.9 and 71.7 and 69.9
Slope normalized to DMSO (proteolytic substrate cleavage over time) ([5]; peptide 1.59E-05 uM): 103.1 and 102.5 and 98.1
Slope normalized to DMSO (proteolytic substrate cleavage over time) ([5]; peptide 1.63E-02 uM): 92.3 and 92.5 and 97.9
Slope normalized to DMSO (proteolytic substrate cleavage over time) ([5]; peptide 1.67E+01 uM): 5.4 and 8.1 and 5.8
Slope normalized to DMSO (proteolytic substrate cleavage over time) ([5]; peptide 2.03E-03 uM): 98.5 and 94.4 and 93.1
Slope normalized to DMSO (proteolytic substrate cleavage over time) ([5]; peptide 2.08E+00 uM): 20.1 and 19.4 and 16.8
Slope normalized to DMSO (proteolytic substrate cleavage over time) ([5]; peptide 2.54E-04 uM): 119.5 and 99.6 and 95.9
Slope normalized to DMSO (proteolytic substrate cleavage over time) ([5]; peptide 2.60E-01 uM): 60.8 and 61.1 and 58.9
Slope normalized to DMSO (proteolytic substrate cleavage over time) ([5]; peptide 3.18E-05 uM): 100.8 (2×) and 96.5
Slope normalized to DMSO (proteolytic substrate cleavage over time) ([5]; peptide 3.26E-02 uM): 86.1 and 87.0 and 83.0
Slope normalized to DMSO (proteolytic substrate cleavage over time) ([5]; peptide 3.33E+01 uM): 5.3 (2×) and 6.5
Slope normalized to DMSO (proteolytic substrate cleavage over time) ([5]; peptide 4.07E-03 uM): 93.9 and 97.5 and 93.1
Slope normalized to DMSO (proteolytic substrate cleavage over time) ([5]; peptide 4.17E+00 uM): 12.5 and 13.2 and 11.9
Slope normalized to DMSO (proteolytic substrate cleavage over time) ([5]; peptide 5.09E-04 uM): 99.8 and 101.3 and 106.4
Slope normalized to DMSO (proteolytic substrate cleavage over time) ([5]; peptide 5.21E-01 uM): 39.6 and 40.5 and 38.3
Slope normalized to DMSO (proteolytic substrate cleavage over time) ([5]; peptide 6.36E-05 uM): 100.0 and 99.8 and 96.8
Slope normalized to DMSO (proteolytic substrate cleavage over time) ([5]; peptide 6.51E-02 uM): 90.0 and 82.1 and 78.1
Slope normalized to DMSO (proteolytic substrate cleavage over time) ([5]; peptide 6.67E+01 uM): 6.2 and 7.3 and 4.1
Slope normalized to DMSO (proteolytic substrate cleavage over time) ([5]; peptide 7.95E-06 uM): 105.8 and 104.8 and 99.9
Slope normalized to DMSO (proteolytic substrate cleavage over time) ([5]; peptide 8.14E-03 uM): 96.3 and 93.4 and 96.8
Slope normalized to DMSO (proteolytic substrate cleavage over time) ([5]; peptide 8.33E+00 uM): 9.2 and 9.9 and 7.4
IC50 ([5]; single replicates R1-R3, read-out: IC50, rat alpha thrombin inhibition): 339 nM and 326 nM (2×)
SGF stability, Residual peptide Average ([6]; after 8 h vs 0 h (TIC), average of R1-R3): 92.45
SGF stability, Residual peptide ([6]; after 8 h vs 0 h (TIC), single replicates R1-R3): 99.51 and 90.02 and 87.82
remaining at 8 h ([6]; simulated gi fluid, 8 h, 37 °C, pH 1.2, read-out: Proteolytic stability: SGF (8 h) % remaining): 92 ± 6%
Structure (SMILES): O=C1C[C@H]2CCCN2C(=O)[C@H](Cc2ccccc2)NC(=O)[C@@H](NC(=O)c2ccc(Cl)s2)CSCc2cccc(n2)CSCCN1 [compound 31]
Ki ([5]; single replicates R1-R3, read-out: Ki, rat alpha thrombin inhibition): 188 nM (2×) and 181 nM (2×) and 180 nM (2×)

From article PMC11062899, “De novo development of small cyclic peptides that are orally bioavailable” (Nature Chemical Biology, 2023)
